Laboratory results reported in patent US5340587A, “Liposome/bronchodilator method & System” (priority 1989, dated 1994).
Where a name gives a salt, the structure may show the parent alone.

What was measured:
[1] = Table 1; cited from earlier work
[2] = in vivo
Method: This liposome-protective effect is illustrated in FIGS. 1A and 1B, which graph percent increases in heart rate, above a pre-drug level, in animals receiving a β2 -agonist in free (open squares), or liposomal form. The two liposomal formulations are characterized by relatively short drug-release half life (open circles, FIG. 1A), or a relatively long drug-release half life (closed circles, FIG. 1B). Heart rate was measured at 15, 45, 75, and 105 minutes after drug administration, and immediately before the animal received a bronchoconstricting dose of histamine by inhalation. […] With liposome-encapsulated drug, however, the increase in heart rate was substantially lower and more constant over the test period.

[3] = blood plasma MPS levels after inhalation (FIG. 2); assay type: in vivo; conditions: inhaled or intranasal
[4] = test system: acetylcholine-induced bronchoconstriction; test: protection against acetylcholine-induced bronchoconstriction (FIG. 4); assay type: in vivo, mongrel dogs; conditions: inhalation, high dose MPS, about four hours (FIG. 4)
[5] = test system: histamine-induced bronchoconstriction; test: determination of therapeutic dose of free drug against histamine-induced bronchoconstriction; assay type: in vivo, guinea pigs; conditions: free form, inhalation
Method: The therapeutic doses of terbutaline sulfate, and salbutamol sulfate which were used in the present study were determined as follows. […] These drug doses, adjusted for the body weight of the test animal, were administered by inhalation in free form, and their effects on the histamine-induced bronchoconstriction were determined as above. MPS was also tested in the initial drug-dose study. […] The therapeutic doses per animal determined from the study were: 39 μg MPS (2× recommended dose); 15 μg terbutaline (2× recommended dose); and 1.5 μg salbutamol (1× recommended dose). The therapeutic dose of MPS is approximately 60 times less than the dose used in the experiments reported above, and in Example VI.

bronchoconstriction = conditions: free vs liposomal-entrapped MPS; cited from earlier work
[6] = in vivo; cited from earlier work
[7] = test system: histamine-induced bronchoconstriction; test: histamine-induced bronchoconstriction: airway resistance and lung compliance (FIGS. 5, 6); assay type: in vivo, guinea pigs; conditions: terbutaline, relative to baseline
Method: The study described in Example VII illustrates the increased protection, at extended time periods, achievable with liposomal drug administration. Briefly summarizing the Example VII study, terbutaline sulfate or salbutamol sulfate, in either free or liposomal form, was administered by inhalation. At several times after drug administration, the test animal was challenged with aerosolized histamine, to induce bronchoconstriction. At the beginning of each test, prior to administration of the β2 -agonist, and immediately after each histamine dose, airway resistance and lung compliance in the animal were measured. Airway resistance, which is measured at points of equal lung volume during the breathing cycle, provides a measure of the resistance to gas flow through the large air passages of the lung. Lung compliance, which is measured at zero flow points in the breathing cycle, reflects the pressure changes required to effect the lung volume change over the breathing cycle. The resistance and compliance values determined at the beginning of the test serve as baseline values for determining the percentage changes in resistance and compliance, in response to histamine-induced bronchoconstriction.
Each time point was calculated as the difference in airway resistance shortly after histamine administration and at the beginning of the test (baseline value) divided by the baseline value. […]

| SMILES | Tc (transition temperature) [1] [C.°] | protection against bronchoconstriction at the recommended dose [5] | therapeutic dose per animal [5] [µg] | other results |
| --- | --- | --- | --- | --- |
| CCCCCCCCCCCCCC(=O)OC[C@H](COP(=O)([O-])OCC[N+](C)(C)C)OC(=O)CCCCCCCCCCCCC [DMPC, dimyristoyl phosphatidyl choline] | 23 |  |  |  |
| CCCCCCCC/C=C\CCCCCCCC(=O)OCC(COP(=O)([O-])OCC[N+](C)(C)C)OC(=O)CCCCCCC/C=C\CCCCCCCC (stereo not drawn) [DOPC, dioleoyl phosphatidyl choline] | -22 |  |  |  |
| CCCCCCCCCCCCCCCC(=O)OC[C@H](COP(=O)([O-])OCC[N+](C)(C)C)OC(=O)CCCCCCCCCCCCCCC [DPPC, dipalmitoyl phosphatidyl choline] | 41 |  |  |  |
| CCCCCCCCCCCCCCCCCC(=O)OCC(COP(=O)([O-])OCC[N+](C)(C)C)OC(=O)CCCCCCCCCCCCCCCCC (stereo not drawn) [DSPC, distearoyl phosphatidyl choline] | 55 |  |  |  |
| CC(C)NCC(O)c1cc(O)cc(O)c1 (stereo not drawn) [MPS, metaproteranol sulfate] |  | necessary to double the recommended dose in order to achieve effective protection | 39 | increase in heart rate [2]: relatively high initial heart rate increase, with a slow decline over the test period; Cmax ([3]; free drug within 15 minutes, read-out: blood plasma MPS level, high): ~80 ng/mL; concentration at 2 h ([3]; over a two-hour period, read-out: blood plasma MPS level at end of test period): ~20 ng/mL; percent protection from ACH-induced bronchoconstriction [4]: substantially the same degree of protection against ACH-induced bronchoconstriction; percent protection against bronchoconstriction (bronchoconstriction): about the same for both free drug and liposomal-entrapped drug; plasma level course [6]: rapid drop in plasma levels |
| CC(C)(C)NCC(O)c1ccc(O)c(CO)c1 (stereo not drawn) [salbutamol sulfate] |  | good protection against bronchoconstriction | 1.5 |  |
| CC(C)(C)NCC(O)c1cc(O)cc(O)c1 (stereo not drawn) [terbutaline sulfate] |  | necessary to double the recommended dose in order to achieve effective protection | 15 | increase in airway resistance, end of test period ([7]; 115 minutes (FIG. 5A)): over 160%; increase in airway resistance, initial ([7]; first histamine challenge (FIG. 5A)): 60% |
